Values of other authors as cited in patent US10391176B2, “Composition, its preparation and method of use in treating skin disorders” (priority 2016, dated 2019).

solubility in acetone (acetone): freely soluble | solubility in dimethylsulfoxide (dimethylsulfoxide): freely soluble | solubility in methanol (methanol): slightly soluble | solubility in tetrahydrofuran (tetrahydrofuran): freely soluble | solubility in water (water): practically insoluble
Compound: COc1cc(C(=O)NS(=O)(=O)c2ccccc2C)ccc1Cc1cn(C)c2ccc(NC(=O)OC3CCCC3)cc12 [Zafirlukast, 4-(5-cyclopentyloxy-carbonylamino-1-methyl-indol-3-ylmethyl)-3-methoxy-N-o-tolylsulfonylbenzamide]
